Experimental data as given in ChEMBL document CHEMBL5506037, “Synthesis of Heterocyclic Ring-Fused Bisnoralcohol Derivatives as Novel Small-Molecule Antiosteoporosis Agents” (J Med Chem, 2024).
The source made the active and inactive calls. No cut-off for these calls is given here.

Tests used:
[1] = test system: BMMC; assay: Anti-osteoclastogenesis activity in M-CSF/RANKL-induced C57BL/6J mouse BMMC cells assessed as inhibition of osteoclast differentiation at 0.1 uM incubated for 7 days by TRAP staining based analysis relative to control; type: functional; details: 168 h, time 7 day
[2] = test system: Mus musculus; assay: Anti-osteoporosis activity in ovariectomized C57BL/6 mouse assessed as prevention of bone loss by measuring recovery of trabecular spacing in femur at 0.6 mg/kg, ip administered every day for 6 weeks by 3D-imaging analysis relative to control; type: functional
[3] = test system: BMMC; assay: Anti-osteoclastogenesis activity in M-CSF/RANKL-induced C57BL/6J mouse BMMC cells assessed as inhibition of Itgb3 gene expression by RNA sequencing analysis; type: functional, cell-based
[4] = test system: BMMC; assay: Anti-osteoclastogenesis activity in M-CSF/RANKL-induced C57BL/6J mouse BMMC cells assessed as reduction in TRAF6 mRNA expression at 0.05 to 5 uM measured after 2 days by RT-qPCR analysis; type: functional, cell-based; details: dose 0.05-5 µM, time 2.0 day
[5] = Apparent volume of distribution in ICR mouse at 1 mg/kg, iv measured upto 24 hrs by LC-MS/MS analysis; type: ADME, organism-based; details: in vivo, read-out: Vz
[6] = test system: BMMC; assay: Anti-osteoclastogenesis activity in M-CSF/RANKL-induced C57BL/6J mouse BMMC cells assessed as reduction in osteoclast generation at 0.05 uM incubated for 7 days by TRAP staining based analysis relative to control; type: functional; design: scale not given: the % may be the effect or the level left; details: time 7 day
[7] = AUC (0 to t) in ICR mouse at 1 mg/kg, iv measured upto 24 hrs by LC-MS/MS analysis; type: ADME, organism-based; details: in vivo
[8] = test system: BMMC; assay: Anti-osteoclastogenesis activity in M-CSF/RANKL-induced C57BL/6J mouse BMMC cells assessed as inhibition of Mapk12 gene expression by RNA sequencing analysis; type: functional, cell-based
[9] = test system: BMMC; assay: Anti-osteoclastogenesis activity in M-CSF/RANKL-induced C57BL/6J mouse BMMC cells assessed as inhibition of CTSK gene expression by RNA sequencing analysis; type: functional, cell-based
[10] = AUC (0 to t) in ICR mouse at 10 mg/kg, po measured upto 24 hrs by LC-MS/MS analysis; type: ADME, organism-based; details: in vivo
[11] = test system: BMMC; assay: Anti-osteoclastogenesis activity in M-CSF/RANKL-induced C57BL/6J mouse BMMC cells assessed as inhibition of Nfatc1 gene expression by RNA sequencing analysis; type: functional, cell-based
[12] = test system: Mus musculus; assay: Anti-osteoporosis activity in ovariectomized C57BL/6 mouse assessed as prevention of bone loss by measuring reduction in osteoclast formation at 0.6 mg/kg, ip administered every day for 6 weeks by H and E staining based analysis; type: functional, organism-based
[13] = test system: BMMC; assay: Anti-osteoclastogenesis activity in M-CSF/RANKL-induced C57BL/6J mouse BMMC cells assessed as inhibition of Il1b gene expression by RNA sequencing analysis; type: functional, cell-based
[14] = test system: BMMC; assay: Anti-osteoclastogenesis activity in M-CSF/RANKL-induced C57BL/6J mouse BMMC cells assessed as inhibition of MMP9 gene expression by RNA sequencing analysis; type: functional, cell-based
[15] = test system: BMMC; assay: Anti-osteoclastogenesis activity in M-CSF/RANKL-induced C57BL/6J mouse BMMC cells assessed as reduction in CTSK mRNA expression at 0.05 to 5 uM measured after 2 days by RT-qPCR analysis; type: functional, cell-based; details: dose 0.05-5 µM, time 2.0 day
[16] = test system: BMMC; assay: Anti-osteoclastogenesis activity in M-CSF/RANKL-induced C57BL/6J mouse BMMC cells assessed as inhibition of osteoclast differentiation at early stage at 0.1 uM measured after 1 to 3 days by TRAP staining based analysis relative to control; type: functional; details: time 1-3 day
[17] = test system: BMMC; assay: Anti-osteoclastogenesis activity in M-CSF/RANKL-induced C57BL/6J mouse BMMC cells assessed as inhibition of Traf6 gene expression by RNA sequencing analysis; type: functional, cell-based
[18] = test system: BMMC; assay: Anti-osteoclastogenesis activity in M-CSF/RANKL-induced C57BL/6J mouse BMMC cells assessed as reduction in size and amount of osteoclasts by measuring reduction in F-actin ring formation incubated for 7 days by rhodamine-labeled phalloidin staining based fluorescence microscopic analysis; type: functional, cell-based; details: dose 0.05-0.5 µM, time 7.0 day
[19] = Cmax in ICR mouse at 1 mg/kg, iv measured upto 24 hrs by LC-MS/MS analysis; type: ADME, organism-based; details: in vivo
[20] = test system: BMMC; assay: Anti-osteoclastogenesis activity in M-CSF/RANKL-induced C57BL/6J mouse BMMC cells assessed as inhibition of osteoclast differentiation at 1 uM incubated for 7 days by TRAP staining based analysis relative to control; type: functional; details: 168 h, time 7 day
[21] = Cmax in ICR mouse at 10 mg/kg, po measured upto 24 hrs by LC-MS/MS analysis; type: ADME, organism-based; details: in vivo
[22] = test system: Mus musculus; assay: Anti-osteoporosis activity in ovariectomized C57BL/6 mouse assessed as prevention of bone loss by measuring recovery of BV/TV in femur at 0.6 mg/kg, ip administered every day for 6 weeks by 3D-imaging analysis relative to control; type: functional
[23] = test system: BMMC; assay: Anti-osteoclastogenesis activity in M-CSF/RANKL-induced C57BL/6J mouse BMMC cells assessed as reduction in TRAP protein expression measured after 3 days by Western blot analysis; type: functional, cell-based; details: dose 0.05-5 µM, time 3.0 day
[24] = test system: BMMC; assay: Anti-osteoclastogenesis activity in M-CSF/RANKL-induced C57BL/6J mouse BMMC cells assessed as inhibition of lilra5 gene expression by RNA sequencing analysis; type: functional, cell-based
[25] = Terminal elimination half life in ICR mouse at 10 mg/kg, po measured upto 24 hrs by LC-MS/MS analysis; type: ADME, organism-based; details: in vivo, read-out: beta t1/2 (converted)
[26] = test system: Mus musculus; assay: Anti-osteoporosis activity in ovariectomized C57BL/6 mouse assessed as prevention of bone loss by measuring reduction in osteoclast formation at 0.6 mg/kg, ip administered every day for 6 weeks by TRAP staining based analysis; type: functional, organism-based
[27] = test system: BMMC; assay: Anti-osteoclastogenesis activity in M-CSF/RANKL-induced C57BL/6J mouse BMMC cells assessed as reduction in MMP9 protein expression measured after 3 days by Western blot analysis; type: functional, cell-based; details: dose 0.05-5 µM, time 3.0 day
[28] = test system: Mus musculus; assay: Anti-osteoporosis activity in ovariectomized C57BL/6 mouse assessed as prevention of bone loss by measuring recovery of trabecular thickness in femur at 0.2 to 0.6 mg/kg, ip administered every day for 6 weeks by 3D-imaging analysis; type: functional, organism-based; details: dose 0.2-0.6 mg/kg
[29] = test system: BMMC; assay: Anti-osteoclastogenesis activity in M-CSF/RANKL-induced C57BL/6J mouse BMMC cells assessed as reduction in MMP9 mRNA expression at 0.05 to 5 uM measured after 2 days by RT-qPCR analysis; type: functional, cell-based; details: dose 0.05-5 µM, time 2.0 day
[30] = test system: BMMC; assay: Potency index, ratio of bisnoralcohol IC50 to test compound IC50 for anti-osteoclastogenesis activity in M-CSF/RANKL-induced C57BL/6J mouse BMMC cells assessed as inhibition of osteoclast differentiation incubated for 7 days by TRAP staining based analysis; type: functional; details: time 7 day
[31] = test system: BMMC; assay: Anti-osteoclastogenesis activity in M-CSF/RANKL-induced C57BL/6J mouse BMMC cells assessed as inhibition of Fosl2 gene expression by RNA sequencing analysis; type: functional, cell-based
[32] = test system: BMMC; assay: Anti-osteoclastogenesis activity in M-CSF/RANKL-induced C57BL/6J mouse BMMC cells assessed as inhibition of FCGR3 gene expression by RNA sequencing analysis; type: functional, cell-based

Vd [5]: 4.85 L/kg
AUC(0-t) at 24 h [7]: 509 ng·h/mL
AUC(0-t) at 24 h [10]: 654 ng·h/mL
Cmax [19]: 484 ng/mL
Cmax [21]: 230 ng/mL
half-life [25]: 1.79 h
Structure (SMILES): CCNC(=O)[C@@H](C)[C@H]1CC[C@H]2[C@@H]3CC=C4C(C)(C)c5nnsc5C[C@]4(C)[C@H]3CC[C@]12C
inhibition at 0.1 µM [1]: 82.8%
Activity [2]: 61.09%
Activity [3]: Active
Activity [4]: Active
Activity [6]: 50%
Activity [8]: Active
Activity [9]: Active
Activity [11]: Active
Activity [12]: Active
Activity [13]: Active
Activity [14]: Active
Activity [15]: Active
inhibition at 0.1 µM [16]: 73.1%
Activity [17]: Active
Activity [18]: Dose-Dependent Effect
inhibition at 1 µM [20]: 100%
Activity [22]: 57.15%
Activity [23]: Dose-Dependent Effect
Activity [24]: Active
Activity [26]: Active
Activity [27]: Dose-Dependent Effect
Activity [28]: inactive
Activity [29]: Active
Ratio IC50 [30]: 45
Activity [31]: Active
Activity [32]: Active
